Measurements as given in US20030064895A1, “Genes for s-adenosyl l-methionine: jasmonic acid carboxyl methyltransferase and a method for the development of pathogen-and stress-resistant plants using the genes” (priority 2000, published 2003).
Entries after “also recorded” stand apart in the source; their conditions may differ.

Key:
JMT enzyme (GST-JMT) = target: T1, JMT enzyme (GST-JMT) (Arabidopsis thaliana, UniProt Q9AR07); test: Substrate specificity of fusion enzyme protein GST-JMT with SAM / [14C]SAM; type: biochemical; details: reaction with JA defined to be 100%
T1 construct: it could be noted that this selected cDNA clone is a full-length cDNA clone; made in house; host or cells: E. coli BL21 (pGEX-2T, plasmid pGST-JMT)
T1 sequence (Q9AR07 1-389): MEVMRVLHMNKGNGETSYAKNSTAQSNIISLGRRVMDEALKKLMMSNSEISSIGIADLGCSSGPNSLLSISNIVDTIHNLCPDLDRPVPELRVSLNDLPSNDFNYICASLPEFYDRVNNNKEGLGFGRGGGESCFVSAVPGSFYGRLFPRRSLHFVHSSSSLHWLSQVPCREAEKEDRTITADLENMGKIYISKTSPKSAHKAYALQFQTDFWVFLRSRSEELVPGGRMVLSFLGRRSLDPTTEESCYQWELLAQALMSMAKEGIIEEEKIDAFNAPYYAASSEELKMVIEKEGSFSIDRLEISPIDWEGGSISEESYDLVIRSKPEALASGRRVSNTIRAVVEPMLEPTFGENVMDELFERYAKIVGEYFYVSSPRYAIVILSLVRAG

[1] = target: T2, jasmonic acid carboxyl methyltransferase (Arabidopsis thaliana, UniProt Q9AR07); test: Kinetic parameters of recombinant JMT protein (Lineweaver-Burk plot); type: biochemical; details: named substance as substrate of recombinant JMT; for Km: SAM and JA as substrates
T2 construct: it could be noted that this selected cDNA clone is a full-length cDNA clone; made in house; host or cells: E. coli BL21 (pGEX-2T, plasmid pGST-JMT)
T2 sequence (Q9AR07 1-389): T1 sequence (Q9AR07 1-389)

[2] = test system: pathogens belonging to Phytium genus; details: treatment at the level of 130 μM; cited from earlier work

Molecule	reactivity as methyl acceptor substrate of JMT enzyme (JMT enzyme (GST-JMT))	Kcat [1] [s⁻¹]	Vm [1] [nmol/min]	Km [1] [µM]	effect on the growth of pathogen [2]
O=C(O)c1ccccc1 [BA, benzoic acid]	substantially not react; also recorded: substantially not proceeded	–	–	–	–
O=C(O)c1ccccc1O [SA, salicylic acid]	substantially not react; also recorded: substantially not proceeded	–	–	–	–
S-adenosyl methionine [SAM]	–	70	84	6.3	–
jasmonic acid [(±)JA]	high reactivity	15	30	38.5	no effect
